In patent publication US10610467B2, “Lightening composition comprising ginseng-derived exosome-like vesicles” (AMOREPACIFIC CORPORATION, priority 2015, dated 2020):

Test system: Human primary melanocytes
Assay: Melanin production by human melanocytes irradiated with 20 mJ/cm^2 UVB 2 times, treated with test substances for 2 weeks (Test Example 3)
Assay type: cell-based
Protocol: Human primary melanocytes (Life Technologies, CA, USA) were cultured in M-254 medium (Gibco BRL, NY, USA) supplemented with human melanocyte growth supplement (HMGS; Gibco BRL, NY, USA) under the condition of 37° C. and 5% CO2. After plating the cells on a 100-mm culture dish with 2×10^5 cells per dish and waiting overnight, 20 mJ/cm^2 UVB was radiated 2 times with a 24-hour interval. Then, the cells were cultured for 2 weeks while replacing the medium with one containing the ginseng-derived exosome-like vesicles obtained in Example 1 at concentrations of 0.1 μg/mL, 1 μg/m L, 5 μg/mL or 10 μg/mL once in 4 days. For comparison, positive control groups were treated with 30 μM Melasolv, 1 μM compound K or 2 ppm fermented saponin for 2 weeks in the same manner and melanin production was measured. As negative control groups, melanocytes not treated with UVB and melanocytes treated with UVB but not treated with the test substances were cultured in the same manner. 2 weeks later, the cells were detached from the culture dish and counted. The cells of the same number were collected into a microtube, lysed with a RIPA lysis buffer (Millipore, 20-188) and then centrifuged at 13,500 rpm for 30 minutes. The precipitating pellets were dissolved in 1 N NaOH and photographed for comparison of color. Melanin contents were compared by measuring absorbance at 450 nm.

Compound	Decrease (%) in melanin contents (1 μM) [%]	Decrease (%) in melanin contents (30 μM) [%]
CC(C)=CCC[C@](C)(O[C@@H]1O[C@H](CO)[C@@H](O)[C@H](O)[C@H]1O)[C@H]1CC[C@]2(C)[C@@H]1[C@H](O)C[C@@H]1[C@@]3(C)CC[C@H](O)C(C)(C)[C@@H]3CC[C@]12C [Comp. K, compound K]	28.3	
COc1cc(/C=C/C(=O)Oc2cc(C)ccc2C(C)C)cc(OC)c1OC [Melasolv]		54.0
